Experimental data reported in patent publication US20200078404A1, “COMBINATION OF A CELL THERAPY AND AN IMMUNOMODULATORY COMPOUND” (Juno Therapeutics, Inc., priority 2017, published 2020).

Assays:
Ikaros = assay: Intracellular Ikaros in anti-CD19 CAR-expressing T cells (flow cytometry); format: cell-based, human
Protocol: Cells of the enriched CD4+ and CD8+ compositions were separately activated with anti-CD3/anti-CD28 beads and subjected to lentiviral transduction with a vector encoding an anti-CD19 CAR. […] Transduced populations then were separately incubated in the presence of stimulating reagents for cell expansion.

K562.CD19 target cells [1] = assay: Cytolytic function of anti-CD19 CAR-expressing T cells against K562.CD19 target cells; format: cell-based, human
Protocol: K562.CD19 target cells were transduced with NucLight Red to permit their tracking by microscopy. Cytolytic activity was assessed by measuring the loss of viable target cells over a period of five days, as determined by red fluorescent signal (using the IncuCyte® Live Cell Analysis System, Essen Bioscience).

[2] = tested on: anti-CD19 CAR-expressing T cells; assay: Serial stimulation with K562.CD19: expansion (cell doublings); format: cell-based, human
Text: (§1) Every 3-4 days (start of each new round), the cells were counted.

[3] = tested on: anti-CD19 CAR-expressing T cells; assay: Surface markers after anti-idiotypic antibody stimulation; format: cell-based, human
Text: CAR-expressing T cells were stained for CD3, CD4, CD8 and the surrogate marker for CAR expression, and also for the following markers: CD25, PD-1, and CD69.

[4] = tested on: anti-CD19 CAR-expressing T cells; assay: T cell surface markers of anti-CD19 CAR-expressing T cells incubated with K562.CD19; format: cell-based, human
[5] = tested on: anti-CD19 CAR-expressing T cells; assay: Serial stimulation with K562.CD19: surface markers; format: cell-based, human
Protocol: as §1
Expression of select surface markers was assessed on cells at day 4 (i.e., 4 days after the first stimulation) and day 28 (i.e., 4 days after the seventh stimulation). Specifically, harvested cells were analyzed by flow cytometry for CD3, CD4, CD8 and the surrogate marker for CAR expression, and also for the following surface markers: CD69, CD107a, PD-1, CD25, CD62L, CCR7, CD45RO, CD27, and LAG3.

[6] = tested on: anti-CD19 CAR-expressing T cells; assay: Cytokine production after anti-idiotypic antibody stimulation; details: anti-idiotypic antibody 0.3-30 μg/ml, 24 hours; Compound 1 100, 1000 nM; lenalidomide 500, 5000 nM
K562.CD19 target cells [7] = assay: Serial stimulation with K562.CD19: cytolytic function at day 24; format: cell-based, human; details: day 24 after serial stimulation
Text: as §1

[8] = tested on: anti-CD19 CAR-expressing T cells; assay: Cytokine production of anti-CD19 CAR-expressing T cells incubated with K562.CD19 target cells; format: cell-based, human
[9] = tested on: Raji lymphoma tumor cells; assay: Raji lymphoma xenograft model, anti-CD19 CAR-expressing cells with Compound 1; format: in vivo, mouse; details: Compound 1 0.3 mg/kg i.p. daily, Concurrent and Delayed groups, combined with anti-CD19 CAR-expressing cells, vs CAR-expressing cells alone
Protocol: The anti-tumor efficacy of CAR-expressing T cells in combination with Compound 1 was assessed by monitoring tumors in a tumor xenograft model. […] T cell compositions were generated from three different donors.
NOD.Cg.Prkdc^scidIL2rg^tm1Wjl/SzJ (NSG) mice were injected intravenously (i.v.) with 0.5×10^6 Raji lymphoma tumor cells (an immortalized human B lymphocyte tumor cell line that expresses CD19) that were transfected with firefly luciferase (Raji-ffluc). Tumor engraftment was allowed to occur for 6 days and verified using bioluminescence imaging. On Day 7, mice either received no treatment, or a single intravenous (i.v.) injection of anti-CD19 CAR-expressing cells at a low dose (0.5×10^6 cells) or a high dose (1.0×10^6 cells). […] Tumor burden was assessed by bioluminescence every 10 days. For bioluminescence imaging, mice received intraperitoneal (i.p.) injections of luciferin substrate (CaliperLife Sciences, Hopkinton, Mass.) resuspended in PBS (15 μg/g body weight). The average radiance (p/s/cm^2/sr) was determined.

## Cc1nc2cccc(N)c2c(=O)n1C1CCC(=O)NC1=O (stereo not drawn) [Compound 1]
Ikaros
  reduction in Ikaros expression compared to lenalidomide: greater reduction in Ikaros expression
Ikaros; CD4+ and CD8+ anti-CD19 CAR-expressing T cells
  intracellular Ikaros expression: concentration-dependent decrease in intracellular Ikaros expression
K562.CD19 target cells [1]; 2.5:1 E:T ratio, some donors
  cytolytic activity of anti-CD19 CAR-expressing cells: slightly reduced cytolytic activity
K562.CD19 target cells [1]; 5:1 E:T ratio, high concentrations, Donor 2, no effects with Donors 1 and 3
  cytolytic activity of anti-CD19 CAR-expressing T cells: slight but consistent increase in cytolytic activity
K562.CD19 target cells [1]; five days, three donors
  cytolytic function of anti-CD19 CAR-expressing T cells: limited effect on cytolytic function
[2]; 10 nM and 100 nM Compound 1, after 24 days
  cell counts of anti-CD19 CAR-expressing T cells: higher than the untreated controls for two out of three donors
[2]; 500 nM Compound 1, rounds after 3-4 rounds of stimulation
  number of doublings of CAR+ cells: lower than the untreated control groups
[3]; CD4+ and CD8+ CAR-expressing T cells, day 4, some donors
  surface markers CD25 and CD69: increase in surface markers CD25 and CD69
[3]; day 4, unchanged or decreased in the other donors
  expression of PD-1: increased in the presence of Compound 1 or lenalidomide in cells generated from at least one donor
[4]; all donors and E:T ratios
  expression of CD27: downregulated in a concentration-dependent manner
  expression of CD45RO: increased
[4]; cells derived from donor 3
  expression of CD69 and LAG3: increased in a concentration-dependent manner
[5]; CD4+ and CD8+ CAR-expressing T cells, day 28, three donors
  expression of CD28: decreased in a dose-dependent manner
[5]; both E:T ratios, day 4 and day 28
  PD-1 expression: downregulated to some degree in all donors
[5]; day 4
  CD25 and LAG3 expression: upregulated across all three donors
[5]; day 28
  CCR7 expression: generally decreased at day 28
[6]
  IFN-γ, IL-2 and TNF-α production: increased relative to the vehicle control
K562.CD19 target cells [7]
  cytolytic activity of anti-CD19 CAR-expressing T cells: increase the cytolytic activity
[8]
  cytokine production compared to lenalidomide at equivalent concentrations: greater cytokine production across multiple conditions
[8]; concentration-dependent, E:T 5:1 and 2.5:1, 24 hours, vs vehicle
  cytokine production (IFN-γ, IL-2, TNF-α): increased
[9]
  tumor burden and survival: reduce tumor burden and improve survival data
